The text below walks through data of patent US4370323A, “2-Cyanoaziridinyl-(1)-2-substituted-aziridinyl-(1)-methanes” (Boehringer Mannheim GmbH, priority 1976, dated 1983).

For series [1], the system named is leukocytes, lymphocytes, erythrocytes, antibody-forming spleen cells. Conditions: intravenous; cited from earlier work.
The conditions of series [2]: prior art compound, cited from earlier work.
The test system of the next series is leucocyte number. Put plainly: Alteration of the leucocyte number in rats. Format: in vivo, female Sprague-Dawley rats. Conditions: fourth day, ten rats; for response vs control in vivo at 50 mg/kg / response vs control in vivo at 200 mg/kg: Rattus norvegicus, Leucocyte, po, 96 h, read-out: proportion of the average leucocyte number of the test group to that of the control group; for proportion of the average leucocyte number of the test group to that of the control group: oral. As for the experimental part: (a) Alteration of the leucocyte number
The active substance was dissolved in each case in 10 ml of a 1% methyl-hydroxyethyl cellulose solution per kg of body weight and orally applied by means of a neck tube to ten fasting female Sprague-Dawley rats in each case. On the fourth day, blood was taken retroorbitally and the leucocyte number was determined by means of a coult counter.

The test system of a further series is Walker-Carcinoma 256. Put plainly: Cancerostatic effect: Walker-Carcinoma 256 transplanted in rats. It is filed as in vivo, female Sprague-Dawley rats. Conditions: for Tumor weight: three days prior to tumor application, day 7, average of 20 animals; for Difference (tumor weight): vs control. The method, then: (§1) Ready-to-be-transplanted tumors of various kinds were taken from freshly killed rats, comminuted coarsely and pulverized with addition of 8 ml of physiological sodium chloride solution. Female Sprague-Dawley rats weighing 80 to 100 g were used as test animals. The respective tumor cell suspension was applied subfacially to the animals in an amount of 0.5 ml per animal under sterile conditions in the neck area. On the seventh day after the transplantation the animals were killed, the tumors taken out and weighed. The substances according to the instant invention were in each case applied orally three days prior to the tumor application by means of a throat tube (in 10 ml 1% hydrous methylhydroxylethyl cellulose solution per kg of body weight).

In another series the test system is DC-Carcino-Sarcoma. Put plainly: Cancerostatic effect: DC-Carcino-Sarcoma transplanted in rats. The note with it: for Tumor weight: three days prior to tumor application, day 7, average of 20 animals; for Difference (tumor weight): vs control. It is filed as in vivo, female Sprague-Dawley rats. As for the experimental part: as §1

Turning to `N#CC1CN1C(N)=O` (stereo not shown) [1-carboxamido-2-cyanoaziridine], in series [1], the antibody-forming spleen cells entry is listed as “increase of the antibody-forming spleen cells”; the cytostatic action entry is on record as “cytostatic action”; the number of erythrocytes entry is “substantially unchanged”; the “number of leukocytes and lymphocytes” value was “marked increase”. Besides, the “keeping time in buffered aqueous solution” value in series [2] (buffered aqueous solution) is on record as “can only be kept for a short time”. For the same molecule, the acid stability result in series [2] is “acid lability”.

On to `CC(C)C(N1CC1C#N)N1CC1C(N)=O` (stereo not shown) [27 a], for which the response vs control in vivo at 50 mg/kg in the series with leucocyte number (50 mg per kg body weight) was found to be 119%. Also, in the series on leucocyte number (200 mg per kg body weight), the response vs control in vivo at 200 mg/kg came out at 166%.

On to `CCC(N1CC1C#N)N1CC1C(N)=O` (stereo not shown) [27 d], for which the response vs control in vivo at 50 mg/kg in the series with leucocyte number (50 mg per kg body weight) was 140%. Further, the response vs control in vivo at 200 mg/kg in the series with leucocyte number (200 mg per kg body weight) amounted to 178%.

With `CCCC(N1CC1C#N)N1CC1C(N)=O` (stereo not shown) [27 e], in the series with leucocyte number (50 mg per kg body weight), the response vs control in vivo at 50 mg/kg came out at 130%. The response vs control in vivo at 200 mg/kg with leucocyte number (200 mg per kg body weight) was determined as 136%.

As to `N#CC1CN1C1(N2CC2C(N)=O)CCOCC1` (stereo not shown) [28 a], in the series on leucocyte number (50 mg per kg body weight), the response vs control in vivo at 50 mg/kg worked out at 109%. Besides, in the series with leucocyte number (200 mg per kg body weight), the response vs control in vivo at 200 mg/kg was 130%.

In the case of `N#CC1CN1C(C1CCCCC1)N1CC1C(N)=O` (stereo not shown) [28 b], the response vs control in vivo at 50 mg/kg in the series with leucocyte number (50 mg per kg body weight) turned out to be 120%. Further, the response vs control in vivo at 200 mg/kg with leucocyte number (200 mg per kg body weight) stood at 155%.

Consider `N#CC1CN1C(c1ccc(Cl)cc1)N1CC1C(N)=O` (stereo not shown) [29 b], for which the response vs control in vivo at 50 mg/kg with leucocyte number (50 mg per kg body weight) worked out at 100%. In the series with leucocyte number (200 mg per kg body weight), the response vs control in vivo at 200 mg/kg is 140%.

For the molecule `N#CC1CN1C(c1ccco1)N1CC1C(N)=O` (stereo not shown) [29 d], the response vs control in vivo at 50 mg/kg in the series on leucocyte number (50 mg per kg body weight) is 100%. Further, the response vs control in vivo at 200 mg/kg in the series on leucocyte number (200 mg per kg body weight) came to 130%.

For `N#CC1CN1C(c1cccs1)N1CC1C(N)=O` (stereo not shown) [29 e], in the series with leucocyte number (50 mg per kg body weight), the response vs control in vivo at 50 mg/kg turned out to be 115%. In addition, the response vs control in vivo at 200 mg/kg with leucocyte number (200 mg per kg body weight) was determined as 150%.

Turning to `N#CC1CN1C(c1cccc([N+](=O)[O-])c1)N1CC1C(N)=O` (stereo not shown) [29 f], the response vs control in vivo at 50 mg/kg with leucocyte number (50 mg per kg body weight) worked out at 109%. Also, the response vs control in vivo at 200 mg/kg with leucocyte number (200 mg per kg body weight) turned out to be 126%.

In the case of `Cc1ccccc1C(N1CC1C#N)N1CC1C(N)=O` (stereo not shown) [30 a], the response vs control in vivo at 50 mg/kg in the series with leucocyte number (50 mg per kg body weight) worked out at 140%. In addition, the response vs control in vivo at 200 mg/kg with leucocyte number (200 mg per kg body weight) came out at 134%.

`COc1cccc(C(N2CC2C#N)N2CC2C(N)=O)c1` (stereo not shown) [30 b]: in the series on leucocyte number (50 mg per kg body weight), the response vs control in vivo at 50 mg/kg is 122%. Moreover, the response vs control in vivo at 200 mg/kg in the series with leucocyte number (200 mg per kg body weight) was determined as 131%.

With `N#CC1CN1C(c1ccc(O)cc1)N1CC1C(N)=O` (stereo not shown) [30 c], the response vs control in vivo at 50 mg/kg in the series with leucocyte number (50 mg per kg body weight) was determined as 170%. Further, the response vs control in vivo at 200 mg/kg with leucocyte number (200 mg per kg body weight) came out at 221%.

With `COC(=O)c1ccc(C(N2CC2C#N)N2CC2C(N)=O)cc1` (stereo not shown) [30 d], the response vs control in vivo at 50 mg/kg with leucocyte number (50 mg per kg body weight) was 108%. Moreover, the response vs control in vivo at 200 mg/kg with leucocyte number (200 mg per kg body weight) turned out to be 150%.

On to `CC(C)(N1CC1C#N)N1CC1C(N)=O` (stereo not shown) [Example 3, 2-[2-Cyanoaziridinyl-(1)]-2-[2-carbamoylaziridinyl-(1)]-propane], for which the “proportion of the average leucocyte number of the test group to that of the control group” value (“proportion” for short) with leucocyte number (50 mg per kg body weight) is recorded as 1,42; with leucocyte number (200 mg per kg body weight), 1,82.

In the case of `CCOC(=O)C(C)(N1CC1C#N)N1CC1C(N)=O` (stereo not drawn) [Example 6, Ethyl α-[2-cyanoaziridinyl-(1)]-α-[2-carbamoylaziridinyl-(1)]-propionate], the response vs control in vivo at 50 mg/kg in the series on leucocyte number (50 mg per kg body weight) stood at 115%. In addition, the response vs control in vivo at 200 mg/kg in the series on leucocyte number (200 mg per kg body weight) came to 165%.

As to `CC(C1CC1)(N1CC1C#N)N1CC1C(N)=O` (stereo not shown) [Example 9, 1-[2-cyanoaziridinyl-(1)]-1-[2-carbamoylaziridinyl-(1)]-1-cyclopropylethane], the response vs control in vivo at 50 mg/kg with leucocyte number (50 mg per kg body weight) was determined as 132%. The response vs control in vivo at 200 mg/kg in the series on leucocyte number (200 mg per kg body weight) came to 182%.

For `N#CC1CN1C1(N2CC2C(N)=O)CCCCC1` (stereo not shown) [Example 10, 1-[2-Cyanoaziridinyl-(1)]-1-[2-carbamoylaziridinyl-(1)]cyclohexane], the Tumor weight in the series with Walker-Carcinoma 256 (10.0 mg/kg oral) was found to be 7.9 g; with Walker-Carcinoma 256 (50.0 mg/kg oral), 5.0 g; with Walker-Carcinoma 256 (100.0 mg/kg oral) it was 4.5 g; with DC-Carcino-Sarcoma (50 mg/kg oral), 11.0 g; in the series on DC-Carcino-Sarcoma (100 mg/kg oral), 10.9 g. Moreover, the “Difference (tumor weight)” value with Walker-Carcinoma 256 (50.0 mg/kg oral) is listed as -41.7%; in the series with Walker-Carcinoma 256 (100.0 mg/kg oral), -46.9%; with DC-Carcino-Sarcoma (50 mg/kg oral) it was -38.5%; with DC-Carcino-Sarcoma (100 mg/kg oral), -40.0%. The “proportion” value is 0,92 in the series with leucocyte number (50 mg per kg body weight) and 2,06 in the series with leucocyte number (200 mg per kg body weight).

Turning to `N#CC1CN1C1(N2CC2C(N)=O)CCCCC1` (stereo not shown) [Example 16, 1-[2-Cyanoaziridinyl-(1)]-1-[2-carbamoylaziridinyl-(1)]-cyclohexane], the “proportion” value was 1,30 with leucocyte number (50 mg per kg body weight) and 1,50 with leucocyte number (200 mg per kg body weight).

Consider `CC1CCC(N2CC2C#N)(N2CC2C(N)=O)CC1` (stereo not shown) [Example 19, 1-[2-Cyanoaziridinyl-(1)]-1-[2-carbamoylaziridinyl-(1)]-4-methylcyclohexane], for which the response vs control in vivo at 50 mg/kg with leucocyte number (50 mg per kg body weight) was 100%. For the same molecule, the response vs control in vivo at 200 mg/kg in the series on leucocyte number (200 mg per kg body weight) is 136%.

On to `COC(=O)C1CCC(N2CC2C#N)(N2CC2C(N)=O)CC1` (stereo not shown) [Example 20, 1-[2-Cyanoaziridinyl-(1)]-1-[2-carbamoylaziridinyl-(1)]-4-methoxycarbonylcyclohexane], for which the response vs control in vivo at 50 mg/kg with leucocyte number (50 mg per kg body weight) amounted to 123%. The response vs control in vivo at 200 mg/kg with leucocyte number (200 mg per kg body weight) turned out to be 151%.

`N#CC1CN1C1CCCC(N2CC2C#N)(N2CC2C(N)=O)C1` (stereo not shown) [Example 21, 1,3-Bis-[2-cyanoaziridinyl-(1)]-1-[2-carbamoylaziridinyl-(1)]-cyclohexane]: the response vs control in vivo at 50 mg/kg in the series with leucocyte number (50 mg per kg body weight) was found to be 111%. In addition, the response vs control in vivo at 200 mg/kg in the series with leucocyte number (200 mg per kg body weight) was found to be 130%.

Regarding `N#CC1CN1C(c1ccccc1)(c1ccccc1)N1CC1C(N)=O` (stereo not drawn) [Example 26, α-[2-Cyanoaziridinyl-(1)]-α-[2-carbamoylaziridinyl-(1)]-diphenylmethane], in the series with leucocyte number (50 mg per kg body weight), the response vs control in vivo at 50 mg/kg came out at 125%. Besides, the response vs control in vivo at 200 mg/kg in the series with leucocyte number (200 mg per kg body weight) was found to be 120%.

`CC(N1CC1C#N)N1CC1C(N)=O` (stereo not shown) [Example 27, 1-[2-Cyanoaziridinyl-(1)]-1-[2-carbamoylaziridinyl-(1)]-ethane]: the response vs control in vivo at 50 mg/kg in the series on leucocyte number (50 mg per kg body weight) turned out to be 117%. Further, in the series with leucocyte number (200 mg per kg body weight), the response vs control in vivo at 200 mg/kg amounted to 153%.

For `N#CC1CN1C1(N2CC2C(N)=O)CCCSC1` (stereo not shown) [Example 28, 3-[2-Cyanoaziridinyl-(1)]-3-[2-carbamoylaziridinyl-(1)]-tetrahydrothiapyran], the response vs control in vivo at 50 mg/kg in the series on leucocyte number (50 mg per kg body weight) was 126%. The response vs control in vivo at 200 mg/kg in the series with leucocyte number (200 mg per kg body weight) is 180%.

Consider `N#CC1CN1C(C=Cc1ccccc1)N1CC1C(N)=O` (stereo not shown) [Example 31, 3-[2-cyanoaziridinyl-(1)]-3-[2-carbamoylaziridinyl-(1)]-1-phenylprop-1-ene], for which the response vs control in vivo at 50 mg/kg with leucocyte number (50 mg per kg body weight) came to 113%. In addition, the response vs control in vivo at 200 mg/kg with leucocyte number (200 mg per kg body weight) was found to be 141%.

Turning to `N#CC1CN1C1(N2CC2C#N)CCCCC1` (stereo not shown) [Example 32, 1,1-bis-[2-cyanoaziridinyl-(1)]-cyclohexane], the response vs control in vivo at 50 mg/kg in the series on leucocyte number (50 mg per kg body weight) is 150%. In addition, the response vs control in vivo at 200 mg/kg with leucocyte number (200 mg per kg body weight) was found to be 150%.
